Test results: patent US8268836B2, “Compound useful as a c-Met inhibitor” (Eli Lilly and Company, priority 2010, dated 2012)

Key:
[1] = target: 99 kinases; test: Cerep Express Diversity Kinase Profile screening; format: biochemical
Excerpt: The Express Diversity Kinase Profile™ is a screening service developed by Cerep SA (Paris, France). Details of assay conditions and/or contact information can be found on their website http://www.cerep.fecerep/users/pages/catalog/profiles/catalog.asp).

[2] = Rat bioavailability study; format: in vivo
Procedure: In rat bioavailability studies, each compound is administered intravenously (IV) or orally (PO). Intravenous dosing is formulated in solution formulation and oral dosing is formulated in 10% w/v acacia. Rat blood samples are collected using anti-coagulant (EDTA) collection tubes and centrifugation is performed to obtain plasma samples. Aliquots of plasma are pipetted and stored immediately at <−20° C. Shipments of plasma samples are packed in dry ice if needed and samples are frozen at <−20° C. until analysis.
A stock solution of each drug is prepared and is diluted into pooled rat plasma to prepare standards. Plasma standards or samples are treated by protein precipitation or liquid-liquid extraction using organic solvent containing internal standard. The mixtures are centrifuged and aliquots of the resulting supernatant fractions are transferred. In the case of protein precipitation, supernatant is diluted and analyzed using a Mass Spectrometer coupled to a HPLC System and an autosampler. In the case of liquid-liquid-extraction, supernatant is dried under N2 at 40° C., reconstituted and analyzed using a Mass Spectrometer coupled to a HPLC System and an autosampler. Quantitation is performed using multiple reaction monitoring (MRM) and linear regression plots of compounds to internal standard peak area ratios versus drug concentrations.

[3] = plasma, PO 10 mg/kg in 10% acacia, Example 1 dosed as mesylate salt

Question: For `Cn1cc(-c2ccc3nnc(Sc4ccc5nn(C)cc5c4)n3n2)cn1` [Example 1, 6-(1-Methyl-1H-pyrazol-4-yl)-3-(2-methyl-2H-indazol-5-ylthio)-[1,2,4]triazolo[4,3-b]pyridazine], which “Kinases inhibited in Cerep screening of 99 kinases” value [1] is on record?
Answer: inhibited only c-Met

Question: What about the “fold increase in oral bioavailability vs reference compound” value [2] of the same compound?
Answer: 4.5 fold

Question: What about the “fold longer terminal elimination half life vs reference compound” value ([2]; 1 mg/kg intravenous dose) of the same compound?
Answer: 4 fold

Question: What about the “fold lower plasma clearance vs reference compound” value ([2]; 1 mg/kg intravenous dose) of the same compound?
Answer: 18 fold

Question: What about the “fold higher exposure by peak plasma concentration vs reference compound” value ([2]; 10 mg/kg oral dose, 10% acacia) of the same compound?
Answer: 57 fold

Question: And the “fold higher exposure by plasma AUC vs reference compound” value ([2]; 10 mg/kg oral dose, 10% acacia)?
Answer: 93 fold

Question: What about the clearance ([2]; plasma, IV 1 mg/kg solution, Example 1 dosed as mesylate salt) of the same compound?
Answer: 1.7 mL/min/kg

Question: And the half-life ([2]; plasma, IV 1 mg/kg solution, Example 1 dosed as mesylate salt, read-out: T½ (converted))?
Answer: 2.3 h

Question: And the Vd ([2]; plasma, IV 1 mg/kg solution, Example 1 dosed as mesylate salt, read-out: Vdss)?
Answer: 0.3 L/kg

Question: And the AUC [2, 3]?
Answer: 73800 ng·h/mL

Question: And the Cmax [2, 3]?
Answer: 9400 ng/mL

Question: What about the Tmax [2, 3] of the same compound?
Answer: 3.33 h

Question: And the bioavailability ([2]; plasma, PO 10 mg/kg vs IV 1 mg/kg, Example 1 dosed as mesylate salt, read-out: F % (oral bioavailability))?
Answer: 65.8%
